According to patent publication US9908831B2, “Resist composition, method for forming resist pattern, polyphenolic compound for use in the composition, and alcoholic compound that can be derived therefrom” (Mitsubishi Gas Chemical Company, Inc., priority 2011, dated 2018):

Experiments:
Format in all cases: physicochemical
[1] = Glass transition temperature by DSC; conditions: 10° C./min to 300° C., second heating after quench, nitrogen gas stream
Protocol: (4) Glass Transition Temperature
The apparatus EXSTAR6000DSC (trade name) manufactured by SII NanoTechnology Inc. was used. About 5 mg of each sample was placed in a non-sealed container made of aluminum, and the temperature was raised to 300° C. at the rate of temperature rise of 10° C./min in a nitrogen gas stream (30 mL/min). After the non-sealed container made of aluminum was quenched, again the temperature was raised to 300° C. at the rate of temperature rise of 10° C./min in a nitrogen gas stream (30 mL/min), thereby performing DSC measurement. The temperature corresponding to the middle point (where the specific heat was changed into the half) of a region in which a discontinuous portion appeared in the baseline was defined as the glass transition point.

[2] = Solubility test of compound in safe solvent; conditions: 23° C., visual
Protocol: (2) Solubility Test of Compound in Safe Solvent
(§1) The solubility of the compound in PGME and PGMEA was evaluated according to the following standard using the dissolution amount in each solvent. For the measurement of the dissolution amount, the compound was precisely weighed in a test tube at 23° C.; and the target solvent was added to the compound so that a predetermined concentration of the liquid to be obtained was set; a ultrasonic wave was applied to the liquid in an ultrasonic washing machine for 30 minutes; and the state of the resulting liquid was visually evaluated.
A: 5.0% by weight≦dissolution amount
B: 3.0% by weight≦dissolution amount<5.0% by weight
C: dissolution amount<3.0% by weight

[3] = Solubility of compound in methyl ethyl ketone (MEK); conditions: dissolution amount in MEK at 23° C., visual
Protocol: (1) Solubility of Compound in Methyl Ethyl Ketone (MEK)
as §1, with “MEK” for “PGME and PGMEA”, “MEK at 23° C.” for “each solvent.”
Evaluation A: 50% by weight or more
Evaluation B: 10% by weigh or more and less than 50% by weight
Evaluation C: less than 10% by weight

[4] = Thermal decomposition temperature by DSC; conditions: 10° C./min to 500° C., nitrogen gas stream
Protocol: (3) Thermal Decomposition Temperature
The apparatus EXSTAR6000DSC (trade name) manufactured by SII NanoTechnology Inc. was used. About 5 mg of each sample was placed in a non-sealed container made of aluminum, and the temperature was raised to 500° C. at the rate of temperature rise of 10° C./min in a nitrogen gas stream (30 mL/min). The temperature corresponding to a descending peak appeared in the baseline was defined as the thermal decomposition temperature.

SMILES	glass transition point [1] [°C]	Solubility test of compound in safe solvent PGME [2]	Solubility test of compound in safe solvent PGMEA [2]	thermal decomposition temperature [4] [°C]	solubility in MEK [3]
Oc1ccc2c(C(c3c(O)ccc4cc(O)ccc34)c3cc4ccccc4c4ccccc34)c(O)ccc2c1 [BisN-8]	140	A (A: 5.0% by weight≦dissolution amount)	A (A: 5.0% by weight≦dissolution amount)	255	B (Evaluation B: 10% by weigh or more and less than 50% by weight)
Oc1ccc2c3c(ccc2c1)Oc1ccc2cc(O)ccc2c1C3c1cc2ccccc2c2ccccc12 [XBisN-8]	155	A (A: 5.0% by weight≦dissolution amount)	A (A: 5.0% by weight≦dissolution amount)	415	B (Evaluation B: 10% by weigh or more and less than 50% by weight)
Oc1ccc2c(C(c3ccc(-c4ccc(C(c5c(O)ccc6cc(O)ccc56)c5c(O)ccc6cc(O)ccc56)cc4)cc3)c3c(O)ccc4cc(O)ccc34)c(O)ccc2c1 [BisN-13]	130	A (A: 5.0% by weight≦dissolution amount)	A (A: 5.0% by weight≦dissolution amount)	245	B (Evaluation B: 10% by weigh or more and less than 50% by weight)
Oc1cc2ccccc2c(C(c2ccc(-c3ccccc3)cc2)c2c(O)c(O)cc3ccccc23)c1O [BisN-6]	130	A (A: 5.0% by weight≦dissolution amount)	A (A: 5.0% by weight≦dissolution amount)	250	B (Evaluation B: 10% by weigh or more and less than 50% by weight)
Oc1ccc2c(C(c3ccc(-c4ccccc4)cc3)c3c(O)ccc4cc(O)ccc34)c(O)ccc2c1 [BisN-1]	130	A (A: 5.0% by weight≦dissolution amount)	A (A: 5.0% by weight≦dissolution amount)	250	B (Evaluation B: 10% by weigh or more and less than 50% by weight)
Oc1ccc2ccc(C(c3ccc(-c4ccccc4)cc3)c3ccc4ccc(O)cc4c3O)c(O)c2c1 [BisN-5]	130	A (A: 5.0% by weight≦dissolution amount)	A (A: 5.0% by weight≦dissolution amount)	250	B (Evaluation B: 10% by weigh or more and less than 50% by weight)
Oc1ccc2c(C(c3ccc(C(c4c(O)ccc5cc(O)ccc45)c4c(O)ccc5cc(O)ccc45)cc3)c3c(O)ccc4cc(O)ccc34)c(O)ccc2c1 [BisN-12]	130	A (A: 5.0% by weight≦dissolution amount)	A (A: 5.0% by weight≦dissolution amount)	245	B (Evaluation B: 10% by weigh or more and less than 50% by weight)
Oc1ccc2c3c(ccc2c1)Oc1ccc2cc(O)ccc2c1C3c1cc2cccc3ccc4cccc1c4c32 [XBisN-9]	155	A (A: 5.0% by weight≦dissolution amount)	A (A: 5.0% by weight≦dissolution amount)	420	B (Evaluation B: 10% by weigh or more and less than 50% by weight)
Oc1ccc2c(C3(c4c(O)ccc5cc(O)ccc45)CCCCC3)c(O)ccc2c1 [BisN-10]	100	A (A: 5.0% by weight≦dissolution amount)	A (A: 5.0% by weight≦dissolution amount)	210	B (Evaluation B: 10% by weigh or more and less than 50% by weight)
Oc1ccc2ccc(O)c(C(c3ccc(-c4ccccc4)cc3)c3c(O)ccc4ccc(O)cc34)c2c1 [BisN-2]	130	A (A: 5.0% by weight≦dissolution amount)	A (A: 5.0% by weight≦dissolution amount)	250	B (Evaluation B: 10% by weigh or more and less than 50% by weight)
Oc1cc(O)c2cc1C(c1ccc(C3CCCCC3)cc1)c1cc(c(O)cc1O)C(c1ccc(C3CCCCC3)cc1)c1cc(c(O)cc1O)C(c1ccc(C3CCCCC3)cc1)c1cc(c(O)cc1O)C2c1ccc(C2CCCCC2)cc1 (stereo not shown) [CR-1, reference compound]	–	B (B: 3.0% by weight≦dissolution amount<5.0% by weight)	C (C: dissolution amount<3.0% by weight)	–	–

Now from value to compound, other results behind:

glass transition point [1] [°C]	Solubility test of compound in safe solvent PGME [2]	Solubility test of compound in safe solvent PGMEA [2]	thermal decomposition temperature [4] [°C]	SMILES	solubility in MEK [3]
152	A (A: 5.0% by weight≦dissolution amount)	A (A: 5.0% by weight≦dissolution amount)	410	Oc1cccc2c3c(ccc12)Oc1ccc2c(O)cccc2c1C3c1ccc(-c2ccccc2)cc1 [XBisN-4]	B (Evaluation B: 10% by weigh or more and less than 50% by weight)
145	A (A: 5.0% by weight≦dissolution amount)	A (A: 5.0% by weight≦dissolution amount)	450	Oc1ccc2c3c(ccc2c1)Oc1ccc2cc(O)ccc2c1C31c2ccccc2-c2ccccc21 [XBisN-11]	B (Evaluation B: 10% by weigh or more and less than 50% by weight)
152	A (A: 5.0% by weight≦dissolution amount)	A (A: 5.0% by weight≦dissolution amount)	410	Oc1ccc2ccc3c(c2c1)Oc1c(ccc2ccc(O)cc12)C3c1ccc(-c2ccccc2)cc1 [XBisN-5]	B (Evaluation B: 10% by weigh or more and less than 50% by weight)
155	A (A: 5.0% by weight≦dissolution amount)	A (A: 5.0% by weight≦dissolution amount)	415	Oc1ccc2c3c(ccc2c1)Oc1ccc2cc(O)ccc2c1C3c1cccc2ccccc12 [XBisN-7]	B (Evaluation B: 10% by weigh or more and less than 50% by weight)
–	A (A: 5.0% by weight≦dissolution amount)	A (A: 5.0% by weight≦dissolution amount)	–	Cc1cc(C(c2ccc3ccc(C(c4cc(C)c(O)c(C)c4C)c4cc(C)c(O)c(C)c4C)cc3c2)c2cc(C)c(O)c(C)c2C)c(C)c(C)c1O [TetP-1, reference compound]	–
152	A (A: 5.0% by weight≦dissolution amount)	A (A: 5.0% by weight≦dissolution amount)	410	Oc1ccc2c3c(ccc2c1)Oc1ccc2cc(O)ccc2c1C3c1ccc(-c2ccc(C3c4c(ccc5cc(O)ccc45)Oc4ccc5cc(O)ccc5c43)cc2)cc1 [XBisN-13]	B (Evaluation B: 10% by weigh or more and less than 50% by weight)
152	A (A: 5.0% by weight≦dissolution amount)	A (A: 5.0% by weight≦dissolution amount)	410	Oc1ccc2ccc3c(c2c1)C(c1ccc(-c2ccccc2)cc1)c1c(ccc2ccc(O)cc12)O3 [XBisN-2]	B (Evaluation B: 10% by weigh or more and less than 50% by weight)
152	A (A: 5.0% by weight≦dissolution amount)	A (A: 5.0% by weight≦dissolution amount)	410	Oc1ccc2c3c(ccc2c1)Oc1ccc2cc(O)ccc2c1C3c1ccc(-c2ccccc2)cc1 [XBisN-1]	A (Evaluation A: 50% by weight or more)
132	–	–	375	OCCOc1ccc2c3c(ccc2c1)Oc1ccc2cc(OCCO)ccc2c1C3c1ccc(-c2ccccc2)cc1 [Example 29]	–
